Results on 17 compounds are retold here after patent US20120088791A1, “AMIDOBIPIPERIDINECARBOXYLATE M1 ALLOSTERIC AGONISTS, ANALOGS AND DERIVATIVES THEREOF, AND METHODS OF MAKING AND USING SAME” (VANDERBILT UNIVERSITY, priority 2009, published 2012).

Structures are written as SMILES. Like-named read-outs stand apart in the source and are kept apart here.

The EC50 is the midpoint of the concentration-response curve.

In the assay the target is T1, rM1 (Rattus norvegicus, UniProt P08482).
T1 construct: host or cells: CHO-K1
T1 sequence (P08482 1-460): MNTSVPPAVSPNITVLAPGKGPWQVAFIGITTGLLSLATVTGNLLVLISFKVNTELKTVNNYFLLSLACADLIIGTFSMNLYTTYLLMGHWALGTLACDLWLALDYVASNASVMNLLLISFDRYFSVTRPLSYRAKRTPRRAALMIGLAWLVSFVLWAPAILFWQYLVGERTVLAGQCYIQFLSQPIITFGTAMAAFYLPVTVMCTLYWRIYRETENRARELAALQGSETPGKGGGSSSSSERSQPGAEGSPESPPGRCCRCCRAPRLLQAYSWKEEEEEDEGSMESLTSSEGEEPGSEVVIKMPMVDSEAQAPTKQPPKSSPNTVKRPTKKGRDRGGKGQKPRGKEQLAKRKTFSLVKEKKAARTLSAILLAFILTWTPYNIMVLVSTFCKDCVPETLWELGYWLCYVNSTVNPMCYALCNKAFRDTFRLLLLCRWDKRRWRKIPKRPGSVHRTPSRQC
Briefly: Calcium mobilization assay, CHO-K1 cells stably expressing rM1. The following applies: for EC50: read-out: Potency (EC50); for Emax: RM1, read-out: Efficacy (% Max ACh). The assay is classed as cell-based. The source says:
Cell culture and transfections. Chinese hamster ovary (CHO-K1) cells stably expressing rat (r)M1 were purchased from the American Type Culture Collection and cultured according to their indicated protocol. CHO cells stably expressing human (h)M2, hM3, and hM5 were used and described previously (Levey et al., 1991); rM4 cDNA, provided by T. I. Bonner (National Institutes of Health, Bethesda, Md.), was used to stably transfect CHO-K1 cells purchased from the American Type Culture Collection using Lipofectamine2000. To make stable hM2 and rM4 cell lines for use in calcium mobilization assays, these cells also were stably transfected with a chimeric G-protein (Gqi5) using Lipofectamine 2000. M1, hM3, and hM5 cells were grown in Ham's F-12 medium containing 10% heat-inactivated fetal bovine serum (FBS), 20 mM HEPES, and 50 μg/ml G418 sulfate. hM2-Gqi5 cells were grown in the same medium also containing 500 μg/ml Hygromycin B. Stable rM4-Gqi5 cells were grown in DMEM containing 10% heat-inactivated FBS, 20 mM HEPES, 400 μg/ml G418 sulfate, and 500 μg/ml Hygromycin B. The rat M1 Y381A orthosteric mutant receptor cDNA was generated using the Quik-Change site-directed mutagenesis kit (Stratagene) and verified by sequencing. CHO-K1 cells were stably transfected with this cDNA using Lipofectamine2000 and screened for expression based on calcium mobilization in response to the allosteric M1 agonist N-desmethylclozapine.
Calcium mobilization assays. For measurement of agonist-evoked increases in intracellular calcium, CHO-K1 cells stably expressing muscarinic receptors were plated in 100 μl of growth medium at 5×10^4 (rM1, hM3, and hM5) or 6×10^4 cells per well (rM1 Y381A, hM2, and rM4) in Costar 96-well black-walled, tissue culture (TC)-treated, clear-bottom plates (Fisher). Cells were incubated overnight at 37° C. and 5% CO2. The next day, medium was removed from the cells, and they were incubated with 50 μl of 2 μM Fluo-4 AM diluted in assay buffer [HBSS (Invitrogen) supplemented with 20 mM HEPES and 2.5 mM probenecid, pH 7.4] for 1 h at 37° C. Dye was removed and replaced with 45 μl of assay buffer. Agonists were diluted into assay buffer at a 2× concentration and applied to cells using the automated system at 19 s into the 130 s protocol. Calcium flux was measured over time as an increase in fluorescence (fold over basal) using the Flexstation plate reader (Molecular Devices).

Where [1] appears, read: Table 1, R-enantiomers, agonist-evoked calcium flux.

For the compound `CCOC(=O)N1CCC(N2CCC[C@H](NC(=O)c3cccc(OC)c3)C2)CC1` [(S)-ethyl 3-(3-methoxybenzamido)-1,4′-bipiperidine-1′-carboxylate], the EC50 (Table 2, S-enantiomers) is over 10 µM. For `CCOC(=O)N1CCC(N2CCC[C@@H](NC(=O)C3CCCCC3)C2)CC1` [(R)-ethyl 3-(cyclohexanecarboxamido)-1,4′-bipiperidine-1′-carboxylate], the Emax (Table 1, R-enantiomers) was found to be 44%. Also, the EC50 under setting [1] worked out at 0.685 µM.

For `CCOC(=O)N1CCC(N2CCC[C@@H](NC(=O)c3ccc(F)c(F)c3)C2)CC1` [(R)-ethyl 3-(3,4-difluorobenzamido)-1,4′-bipiperidine-1′-carboxylate], under “Table 1, R-enantiomers”, the Emax worked out at 84%. For the same compound, under setting [1], the EC50 is 0.309 µM. The like results for `CCOC(=O)N1CCC(N2CCC[C@@H](NC(=O)c3cccs3)C2)CC1` [(R)-ethyl 3-(thiophene-2-carboxamido)-1,4′-bipiperidine-1′-carboxylate] were, in that order, 61% and 1.3 µM. The like results for `CCOC(=O)N1CCC(N2CCC[C@@H](NC(=O)c3ccc(OC)cc3)C2)CC1` [(R)-ethyl 3-(4-methoxybenzamido)-1,4′-bipiperidine-1′-carboxylate] were, in that order, 63% and 0.963 µM. Take `CCOC(=O)N1CCC(N2CCC[C@H](NC(=O)C3CCCC3)C2)CC1` [(S)-ethyl 3-(cyclopentanecarboxamido)-1,4′-bipiperidine-1′-carboxylate]: for the setting “Table 2, S-enantiomers”, the EC50 was over 10 µM.

For `CCOC(=O)N1CCC(N2CCC[C@H](NC(=O)c3ccccc3Cl)C2)CC1` [(S)-ethyl 3-(2-chlorobenzamido)-1,4′-bipiperidine-1′-carboxylate], the EC50 (Table 2, S-enantiomers) was over 10 µM. Consider `CCOC(=O)N1CCC(N2CCC[C@@H](NC(=O)c3ccccc3Cl)C2)CC1` [(R)-ethyl 3-(2-chlorobenzamido)-1,4′-bipiperidine-1′-carboxylate], for which the Emax (Table 1, R-enantiomers) came out at 57%. The EC50 under setting [1] came out at 2.6 µM.

For the compound `CCOC(=O)N1CCC(N2CCC[C@H](NC(=O)c3ccc(C)cc3)C2)CC1` [(S)-ethyl 3-(4-methylbenzamido)-1,4′-bipiperidine-1′-carboxylate], the EC50 (Table 2, S-enantiomers) was over 10 µM. In the case of `CCOC(=O)N1CCC(N2CCC[C@H](NC(=O)C3CCCCC3)C2)CC1` [(S)-ethyl 3-(cyclohexanecarboxamido)-1,4′-bipiperidine-1′-carboxylate], where the note is “Table 2, S-enantiomers”, the EC50 is over 10 µM. Same read-out and setting: the value for `CCOC(=O)N1CCC(N2CCC[C@H](NC(=O)c3cccs3)C2)CC1` [(S)-ethyl 3-(thiophene-2-carboxamido)-1,4′-bipiperidine-1′-carboxylate] was over 10 µM. As to `CCOC(=O)N1CCC(N2CCC[C@@H](NC(=O)c3cccc(F)c3)C2)CC1` [(R)-ethyl 3-(3-fluorobenzamido)-1,4′-bipiperidine-1′-carboxylate], the Emax (Table 1, R-enantiomers) came out at 92%. For the same compound, the EC50 under setting [1] turned out to be 0.144 µM. Consider `CCOC(=O)N1CCC(N2CCC[C@@H](NC(=O)c3ccc(F)cc3C)C2)CC1` [(R)-ethyl 3-(4-fluoro-2-methylbenzamido)-1,4′-bipiperidine-1′-carboxylate], for which, for the setting “Table 1, R-enantiomers”, the Emax turned out to be 77%. The 50% effective concentration (EC50) under setting [1] is 0.059 µM.

As to `CCOC(=O)N1CCC(N2CCC[C@@H](NC(=O)c3ccc(C)cc3)C2)CC1` [(R)-ethyl 3-(4-methylbenzamido)-1,4′-bipiperidine-1′-carboxylate], the Emax (Table 1, R-enantiomers) is 14%. Moreover, the EC50 under setting [1] is 0.819 µM. In the case of `CCOC(=O)N1CCC(N2CCC[C@H](NC(=O)c3ccc(F)cc3C)C2)CC1` [(S)-ethyl 3-(4-fluoro-2-methylbenzamido)-1,4′-bipiperidine-1′-carboxylate], the EC50 (Table 2, S-enantiomers) is over 10 µM.

For `CCOC(=O)N1CCC(N2CCC[C@H](NC(=O)c3cccc(F)c3)C2)CC1` [(S)-ethyl 3-(3-fluorobenzamido)-1,4′-bipiperidine-1′-carboxylate], where the note is “Table 2, S-enantiomers”, the EC50 is over 10 µM. Turning to `CCOC(=O)N1CCC(N2CCC[C@@H](NC(=O)c3cccc(OC)c3)C2)CC1` [(R)-ethyl 3-(3-methoxybenzamido)-1,4′-bipiperidine-1′-carboxylate], the Emax (Table 1, R-enantiomers) amounted to 91%. Further, the EC50 under setting [1] amounted to 0.245 µM.
